Experimental data from patent US20240139191A1, “SMALL MOLECULES AS LARP1 LIGANDS” (priority 2020, published 2024).

Molecular target: LARP1 DM15 region (Homo sapiens, UniProt Q6PKG0)
Test: binding of LARP1 DM15 region to capped RNA motifs
Details: relative to endogenous (human) m7GpppC motif; FIGS. 1B & C

SMILES: Cn1c[n+]([C@@H]2O[C@H](COP(=O)(O)OP(=O)(O)OP(=O)(O)OC[C@H]3O[C@@H](n4cnc5c(N)ncnc54)[C@H](O)[C@@H]3O)[C@@H](O)[C@H]2O)c2nc(N)[nH]c(=O)c21 [m^7GpppA]
- interaction with DM15 region compared with m7GpppC-initiated mRNA targets: even tighter interaction
